# In patent US8309068B2, “Isolated polypeptides and methods of improving muscle strength” (Myostin Therapeutics Pty Ltd., priority 2006, dated 2012):
# Where no end group is shown, it is not given here.
# Key:
# myostatin [1] = experiment: C2C12 myoblast proliferation competition assay: wild type myostatin competed with antagonists; assay type: cell-based; details: antagonist 1, 5 and 10 μg/ml; myostatin 2.25 μg/ml
# Procedure: […] C2C12 myoblasts were grown in Dulbecco's modified eagle medium according to the standard techniques (Thomas et al, 2000). The myoblast proliferation assay was carried out in uncoated 96-well microtitre plates. C2C12 cultures were seeded at 1000 cells/well. Following a 16-hour attachment period, test media containing either recombinant wild type myostatin or different myostatin antagonists were added and cells were incubated for a further 48 or 72 hour period. For competition assay, wild type myostatin was competed with different concentrations of myostatin antagonists prior to the addition into the media. After the incubation period, proliferation was assessed using methylene blue photometric endpoint assay as previously described (Thomas et al, 2000).
# [2] = system: Human skeletal muscle myoblasts; experiment: Human myoblast proliferation assay; assay type: cell-based; details: 1, 5 or 10 μg/ml; 144 hours
# Procedure: (§1) Human skeletal muscle myoblasts (Cambrex, USA) or primary ovine myoblasts were grown in Dulbecco's Modified Eagle Medium containing 20% FBS, 10% Horse serum and 0.5% chicken embryo extract according to the standard techniques. The myoblast proliferation assay was carried out in uncoated 96-well microtitre plates. Cell cultures were seeded at 2000 cells/well. Following a 24-hour attachment period, test media supplemented with 5% FCS containing either buffer as a control or different myostatin antagonists (300, 310 or 320) were added at 1, 5 and 10 μg/ml and cells were incubated for a further 144 hour period (for human cells) or 48 hours (for ovine cells). After the incubation period, proliferation was assessed using methylene blue photometric endpoint assay as previously described (Thomas et al, 2000).
# primary ovine myoblasts = experiment: Ovine myoblast proliferation assay; assay type: cell-based; details: 1, 5 or 10 μg/ml; 48 hours
# Procedure: as §1
# myostatin [3] = experiment: Myoblast chemotaxis assay, recovery of myostatin chemo-inhibition by antagonists; assay type: cell-based
# Procedure: Primary myoblasts were cultured from the hind limb muscle of young (4 to 6 week old) or old (24 month old) mice, according to the published protocols (Allen et al., 1997; Partridge, 1997). Briefly, muscles were minced, and digested in 0.2% collagenase type 1A for 90 min. Cultures were enriched for myoblasts by pre-plating on uncoated plates for 3 hours. Myoblast cultures were maintained in growth media (GM) supplemented with 20% fetal calf serum (FCS), 10% HS and 1% CEE on 10% Matrigel coated plates, at 37° C./5% CO2. The extent of culture purity was assessed by flow cytometry analysis of MyoD expression after 48 hours in culture. Cells were harvested using trypsin, suspended at a concentration of 10^6 cells/200 μl and fixed overnight in 5 ml 70% ethanol at −20° C. Staining was performed for 30 min at room temperature using rabbit polyclonal anti-MyoD, 1:200 (Santa Cruz), followed by Alexa fluor 488 anti-rabbit conjugate, 1:500 (Molecular Probes). Analysis was carried out in duplicate with 10^4 cell events collected in each assay. Debris was excluded by gating on forward and side scatter profiles. Cells were analyzed by FACScan (Becton Dickinson). Macrophages were isolated by a peritoneal lavage technique and/or derived from bone marrow Zymosan-activated mouse serum (ZAMS) was prepared according to the published protocol (Colditz and Movat, 1984).
# For the chemotaxis assay of myoblasts, a first assay was carried out on myoblasts from 2 year old mice as follows. DMEM containing 2% horse serum (HS), 5% chicken embryo extract (CEE) plus dialysis buffer was used as positive control. […] Plain DMEM was used as negative control. On a 24-well plate, the bottom wells were filled with test or control media. Seventy-five thousand cells were added to the top wells containing polyethylene terephthalate (PET) 0.8 μm membranes coated with 1% Matrigel. The plate was incubated for 7 h at 37° C., 5% CO2. […] The membrane was then fixed, stained in Gill's hematoxylin and wet mounted on slides. Migrated cells were counted on four representative fields per membrane and the average number plotted. The results are shown in FIG. 6 (myoblast migration from old mice) and FIG. 7 (myoblast migration from young mice).
# satellite cells = experiment: Satellite cell activation on single fibres from mice treated in vivo; details: 6 μg/g BW SC three times a week for six weeks; end of treatment
# Procedure: To test the effect of short term myostatin antagonist treatment on satellite cell activation, single fibres were isolated from mice from each treatment group (as described in example 4, below), and cultured as described above. Satellite cell activation was investigated using anti-PCNA antibodies as described.
# (§2) An animal trial was conducted to assess the effects of myostatin antagonist 300 in improving muscle function. Sixteen month old mice were divided into two groups of ten. While the control group received saline subcutaneous (SC) injections, the other group received myostatin antagonist 300 SC at 6 μg/gram of BW three times a week for six weeks. The functional improvement of sarcopenic muscle was assessed by measuring grip strength of mice at the end of trial. Grip strength was measured in Newtons.
# Sixteen month old mice = experiment: In vivo trial in sixteen month old mice (sarcopenic muscle, grip strength)
# Procedure: as §2
# mdx mice = experiment: Mdx in vivo trial
# Procedure: An in vivo trial was performed in which 4 week old mdx mice were injected 3× per week with 300 (6 μg/g) or saline (10 mice in each treatment) for 4 weeks. Body weights were recorded regularly and blood was collected for creatine kinase activity to assess the extent of muscle damage. Grip tests were performed as a measure of strength. After 4 weeks of treatment mice were culled and individual hind limb muscles collected for protein expression analysis—Pax7 & MyoD (satellite cell activation/myogenesis), and histology.
# Protein was extracted from three hind limb muscles, biceps femoris, tibialis anterior and gastrocnemius. 15 μg of protein was separated on 4-12% SDS PAGE, transferred to nitrocellulose membrane and immunoprobed with Pax7 and MyoD.
# Ten micron transverse sections were cut from the midbelly region of each m. gastrocnemius. Muscle sections were stained with haematoxylin and eosin (H & E) to visualise and measure areas of necrosis and regeneration. These areas were analysed using an Olympus BX50 microscope (Olympus, Tokyo, Japan), a SPOT-RT 4.01 camera and software (Diagnostic Instruments, Sterling Heights, Mich.). Areas were measured using Image-Pro Plus (Media Cybernetics, Silver Spring, Md.).
# Blood was collected by tail-bleeding into 75 mm heparinised microhematocrit tubes. Tubes were centrifuged in a Micro-hematocrit centrifuge (Adams) for 5 minutes and then the plasma removed. The recovered plasma was centrifuged again at 2500×g for 5 minutes and then stored at −80° C. until analysis. Plasma was separated from the red blood cells within 2 hours of blood collection to minimise hemolysis. Creatine kinase activity was determined using CK N-acetyl-L-cysteine creatine kinase kit (Beckman Coulter) within 6 weeks of plasma collection. Muscle strength was assessed using a grip strength apparatus (MK-380S, Muromachi; Tokyo, Japan) at the beginning, mid-point and end of the trial. The maximum force exerted by a mouse while being pulled backward by the tail is recorded in Newtons. The mean of three grip tests for each mouse was calculated and the mean maximal force of 10 mice per group was determined.
# [4] = 6 μg/g 3x per week for 4 weeks, biceps femoris, tibialis anterior and gastrocnemius
# [5] = m. gastrocnemius sections, H & E
substance,measurement,setting,value
"myostatin antagonist 300: recombinant peptide, amino acids 267-300 of bovine myostatin, with N terminal and C terminal tag (SEQ ID NO: 6) (DFGLDCDEHSTESRCCRYPLTVDFEAFGWDWIIA; cysteine pairing not given here; also: N- and C-terminal tags; listed as Homo sapiens)",rescue of the proliferation-inhibiting effects of myostatin on myoblasts,myostatin [1],rescued to levels similar to those observed in the positive control
same,proliferation capacity of human myoblasts compared to control,[2],significantly enhanced
same,proliferation capacity of ovine myoblasts compared to control,primary ovine myoblasts,significantly enhanced
same,rescue of chemo-inhibiting effects of myostatin on myoblast migration,"myostatin [3]; myoblasts from old (2 year old) mice, antagonist added at 5 μg/ml, myostatin 2.5 μg/ml",rescued to levels similar to those observed in the control
same,rescue of chemo-inhibiting effects of myostatin on myoblast migration,myostatin [3]; myoblasts from young (1 month old) mice,rescued the migration of myostatin cells to control levels
same,satellite cell activation in fibres isolated from treated mice,satellite cells,increase observed
same,body fat compared with saline treated controls,"Sixteen month old mice; 16 month old mice, 6 week treatment, observation, result not shown",reduced the amount of subcutaneous fat including the inguinal fat pad
same,average percent change in grip strength,"Sixteen month old mice; aged mice, 6 μg/g BW SC three times a week, six week period",highly significant increase
same,grip strength at the beginning and end of the trial,"Sixteen month old mice; aged mice, day 0 and day 42, 6 μg/g BW SC three times a week",significantly increased
same,MyoD protein level (western blot),mdx mice; [4],substantial upregulation
same,Pax7 protein level (western blot),mdx mice; [4],substantial upregulation
same,change in plasma creatine kinase activity from commencement to completion of the trial,"mdx mice; 4 weeks, vs saline",larger decrease
same,grip strength,mdx mice; after 4 weeks of treatment,significant increase
same,percentage necrotic area of muscle,mdx mice; [5],Reduced Necrosis
same,percentage regenerating area of muscle,mdx mice; [5],Increased Regeneration
